Tests used:
[1] = system: α7 integrin (LacZ reporter in α7+/LacZ myotubes); experiment: Myotube α7 integrin FDG assay (Burkin assay in myotubes, 96-well); assay type: cell-based, mouse; settings: Mus musculus, Myotube, read-out: EC50 α7+/LacZ MT
[2] = system: β-galactosidase in CMV-LacZ C2C12 myoblasts; experiment: CMV-LacZ secondary screen in C2C12 myoblasts (β-Gal stabilizing assay); assay type: cell-based, mouse
Method in brief: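 C2C12 myoblasts stably carrying a linearized CMV-driven LacZ construct, clone chosen by β-gal level in the myoblast FDG assay. Compounds tested in 96-well dose-response at 0.5, 1, 5, 10, 20 and 40 μM, N=2 replicates per point, to detect β-gal stabilization.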

[3] = system: β-galactosidase in CMV-LacZ C2C12 myotubes; experiment: CMV-LacZ secondary screen in C2C12 myotubes (β-Gal stabilizing assay); assay type: cell-based, mouse
Method in brief: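 First, C2C12 myoblasts were transfected with a linearized CMV-LACZ vector and clonal lines selected by FDG β-gal assay. Then cells were exposed to compounds at 0.5, 1, 5, 10, 20 and 40 μM in 96-well format, two replicates each, and β-gal measured.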

[4] = system: α7 Integrin protein in C2C12 myotubes; experiment: Western blot of α7 integrin protein in C2C12 myotubes; assay type: cell-based, mouse; settings: 12 μM, 48 hours, α7B Integrin normalized to GAPDH
Protocol: Bands were quantified using Image J software and then graphed as α7 Integrin protein levels relative to GAPDH protein levels. * denotes a significant difference in relative protein levels with ** p<0.01.
C2C12 myotubes were treated for 48 hours with each hit compound, washed with PBS, then scraped and pelleted using standard procedures. Cell pellets were resuspended in RIPA buffer and protein concentration determined by BCA. Approximately 10 μg of protein was loaded per lane and separated on 8% SDS-PAGE gels and transferred to nitrocellulose using standard conditions. Blots were probed using α7A and α7B integrin specific rabbit polyclonal antibody as previously described and […].
Western blot analysis of the myotube protein extracts were then performed for α7B Integrin and normalized to GAPDH (FIGS. 8A and 8B).
Immunoblot analysis is used to assess the protein level expression in treated and control cells. C2C12 and human DMD myoblasts and myotubes are cultured in triplicate experiments and treated with lead compounds or DMSO as described above. Cells are harvested using a cell scraper and extracted proteins. Extracted protein is quantified by a Bradford assay. […] A LiCoR Odyssey scanner and software is used to quantify band intensities and statistical significance (p<0.05) is determined using ANOVA.

[5] = system: α7 integrin (LacZ reporter in α7LacZ+/− myoblasts); experiment: qHTS of the LOPAC library and MLSMR (online screen, α7LacZ+/− myoblasts); settings: LOPAC library
Protocol: A total of 250 α7LacZ^+/− myoblasts at passage 13 were dispensed using a multidrop (Thermo) into black low base tissue culture treated microclear aurora plates in 6 μl media containing DMEM without phenol, 5% FBS, 1× GluMax and 1× Penicillin/Streptomycin. […] Compounds were then dispensed using a Kalypsys pintool to deliver 23 nl/well compounds in DMSO (diluted into 6 μl resulting in a 1:260 dilution of compound). […] After incubation with compound, 5 μl of the media was aspirated using the Kalypsys washer/dispenser and 3 μl of the Mammalian Protein Extraction Reagent (MPER) lysis buffer (Thermo Fisher) was added. […] The plates were then incubated for 10 minutes at room temperature.
The assay was adapted for a high-throughput screen with the fully automated Kalypsys robotic system using 1536 well plates at NCGC.

COc1ccc2c(c1)/C(=C/c1cnc[nH]1)C(=O)N2 [SU9516, 3-[1-(3H-imidazol-4-yl)-meth-(Z)-ylidene]-5-methoxy-1,3-dihydro-indol-2-one, reference compound]
EC50 [1]: 6 µM | activity in C2C12 CMV-LACZ myoblasts [2]: showed activity | activity in C2C12 CMV-LACZ myotubes [3]: showed activity | increase in α7 Integrin protein levels compared to DMSO treated controls [4]: approximately 1.6 fold | outcome of preliminary LOPAC library screen [5]: hit
